The source made the active and inactive calls. For most assays here, no stated cut-off is given here; in the data, actives have a measured EC50 and inactives only a lower limit.
Experiments:
Genome polyprotein = Genome polyprotein (dengue virus type 2, UniProt P29990); assay: Dengue-2 NS5 methyltransferase inhibitors, primary screen, biochemical, confirmation dose response (AID 588689); format: functional
[1] = target: T1, RNA-binding protein pos-1 (Caenorhabditis elegans, UniProt G5EF15); assay: inhibitors of POS-1/mex-3 RNA binding, dose response, biochemical, fluorescence polarization (AID 1964);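 further: purified POS-1 fused to maltose binding protein made in E. coli; potency of compounds blocking POS-1 binding to fluorescent RNA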
T1 sequence (G5EF15 whole entry): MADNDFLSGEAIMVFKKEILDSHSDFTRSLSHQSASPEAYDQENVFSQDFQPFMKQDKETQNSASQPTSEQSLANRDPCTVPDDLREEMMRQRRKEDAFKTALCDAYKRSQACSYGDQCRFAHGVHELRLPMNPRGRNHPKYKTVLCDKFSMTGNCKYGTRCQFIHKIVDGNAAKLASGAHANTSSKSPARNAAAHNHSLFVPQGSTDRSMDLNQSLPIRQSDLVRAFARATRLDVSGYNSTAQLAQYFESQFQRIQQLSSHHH

[2] = target: T2, Zinc finger protein mex-5 (Caenorhabditis elegans, UniProt Q9XUB2); assay: MEX-5/TCR-2 RNA interaction inhibitors, dose response, biochemical, C. elegans, fluorescence polarization (AID 1960)
T2 sequence (Q9XUB2 whole entry): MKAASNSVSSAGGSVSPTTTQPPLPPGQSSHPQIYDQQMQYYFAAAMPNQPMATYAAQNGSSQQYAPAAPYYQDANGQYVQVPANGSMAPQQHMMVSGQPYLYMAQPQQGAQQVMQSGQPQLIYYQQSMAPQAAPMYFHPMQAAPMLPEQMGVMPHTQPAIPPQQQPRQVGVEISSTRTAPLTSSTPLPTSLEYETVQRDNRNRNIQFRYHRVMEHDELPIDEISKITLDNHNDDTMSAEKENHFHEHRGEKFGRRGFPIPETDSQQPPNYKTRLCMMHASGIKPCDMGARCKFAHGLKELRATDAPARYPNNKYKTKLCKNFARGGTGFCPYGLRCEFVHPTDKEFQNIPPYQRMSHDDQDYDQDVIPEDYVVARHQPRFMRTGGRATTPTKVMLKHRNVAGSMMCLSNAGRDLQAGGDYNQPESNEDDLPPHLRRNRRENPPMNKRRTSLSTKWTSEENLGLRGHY

[3] = cytotoxicity toward NIH3T3 fibroblasts, dose response, counter-screen, cell-based, ATP luminescence, mouse fibroblasts (AID 2010); format: functional;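 further: cells exposed to compound for about 90 hours before reading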
Large T antigen = Large T antigen (Simian virus 40, UniProt P03070); format: functional, Betapolyomavirus macacae;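 further: Confirmatory-stage PubChem screen for compounds that inhibit SV40 T antigen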
[4] = inhibitors of intracellular T. cruzi replication, confirmation, NIH3T3 host cells, beta-gal luminescence (AID 2044); format: functional, cell-based;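 further: intracellular parasites grown in NIH/3T3 mouse fibroblasts as host cells; luminescent beta-galactosidase reporter signal from transgenic T. cruzi replicating inside host cells; inhibitors lower the luminescence signal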
[5] = target: T3, Heat shock factor protein 1 (Mus musculus, UniProt P38532); assay: HSF1 potentiators in luciferase reporter cells, confirmation, cell-based, NIH3T3, luminescence, dose retest (AID 435004); format: functional;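 further: stress induced by proteasome inhibitor MG132 added 30 min after compound; luciferase reporter driven by HSF1 response element in NIH3T3 cells; actives raise luminescence as potentiators of the MG132 stress response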
T3 sequence (P38532 whole entry): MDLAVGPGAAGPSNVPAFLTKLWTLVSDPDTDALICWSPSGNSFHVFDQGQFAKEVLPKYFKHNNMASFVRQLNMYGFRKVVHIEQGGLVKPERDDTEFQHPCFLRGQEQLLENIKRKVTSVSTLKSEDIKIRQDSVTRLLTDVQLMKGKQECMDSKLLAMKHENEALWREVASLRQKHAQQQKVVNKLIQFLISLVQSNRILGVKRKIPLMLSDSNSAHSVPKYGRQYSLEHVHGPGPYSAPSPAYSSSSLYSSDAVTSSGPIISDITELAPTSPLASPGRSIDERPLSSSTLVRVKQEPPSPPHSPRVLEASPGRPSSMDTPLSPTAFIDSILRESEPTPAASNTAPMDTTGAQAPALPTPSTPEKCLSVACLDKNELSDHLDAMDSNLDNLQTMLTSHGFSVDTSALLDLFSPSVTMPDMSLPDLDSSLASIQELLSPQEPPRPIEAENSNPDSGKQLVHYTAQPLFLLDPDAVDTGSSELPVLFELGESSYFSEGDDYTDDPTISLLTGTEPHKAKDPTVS

[6] = target: T4, Replicative DNA helicase DnaB (Mycobacterium tuberculosis, UniProt P9WMR3); assay: DnaB intein splicing inhibitors, dose response, biochemical, cell-free fluorescence (AID 449749); format: functional
T4 sequence (P9WMR3 whole entry): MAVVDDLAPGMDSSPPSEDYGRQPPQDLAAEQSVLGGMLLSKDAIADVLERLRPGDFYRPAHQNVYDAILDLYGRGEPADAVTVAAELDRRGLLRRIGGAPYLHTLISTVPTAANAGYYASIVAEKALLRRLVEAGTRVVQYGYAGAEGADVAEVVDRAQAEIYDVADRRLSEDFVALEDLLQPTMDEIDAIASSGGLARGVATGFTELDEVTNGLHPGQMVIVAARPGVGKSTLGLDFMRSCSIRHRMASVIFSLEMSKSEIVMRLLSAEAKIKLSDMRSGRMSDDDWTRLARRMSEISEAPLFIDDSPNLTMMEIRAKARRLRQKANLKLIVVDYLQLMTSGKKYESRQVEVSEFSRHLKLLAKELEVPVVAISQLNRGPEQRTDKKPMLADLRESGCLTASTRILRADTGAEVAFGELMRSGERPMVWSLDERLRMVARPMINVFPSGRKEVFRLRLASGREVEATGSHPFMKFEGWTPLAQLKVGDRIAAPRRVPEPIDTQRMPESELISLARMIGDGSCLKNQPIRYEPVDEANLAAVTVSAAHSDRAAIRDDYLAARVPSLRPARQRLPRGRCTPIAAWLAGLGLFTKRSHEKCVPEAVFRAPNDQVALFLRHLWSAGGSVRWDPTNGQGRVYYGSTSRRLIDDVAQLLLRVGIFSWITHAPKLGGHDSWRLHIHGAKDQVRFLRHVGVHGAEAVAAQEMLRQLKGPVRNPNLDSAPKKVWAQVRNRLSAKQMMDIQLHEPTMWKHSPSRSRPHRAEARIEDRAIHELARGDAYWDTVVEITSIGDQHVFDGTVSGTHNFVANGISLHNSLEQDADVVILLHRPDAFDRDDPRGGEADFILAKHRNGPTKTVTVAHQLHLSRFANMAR

Protein RecA = target: T5, Protein RecA (Mycobacterium tuberculosis, UniProt P9WHJ3); assay: Fluorescence Cell-Free Homogeneous Dose Retest to Identify Inhibitors of RecA-Intein Splicing Activity. [Related pubchem assays (depositor defined):AID2097, AID2223, AID489010, AID492950]; format: functional
T5 sequence (P9WHJ3 whole entry): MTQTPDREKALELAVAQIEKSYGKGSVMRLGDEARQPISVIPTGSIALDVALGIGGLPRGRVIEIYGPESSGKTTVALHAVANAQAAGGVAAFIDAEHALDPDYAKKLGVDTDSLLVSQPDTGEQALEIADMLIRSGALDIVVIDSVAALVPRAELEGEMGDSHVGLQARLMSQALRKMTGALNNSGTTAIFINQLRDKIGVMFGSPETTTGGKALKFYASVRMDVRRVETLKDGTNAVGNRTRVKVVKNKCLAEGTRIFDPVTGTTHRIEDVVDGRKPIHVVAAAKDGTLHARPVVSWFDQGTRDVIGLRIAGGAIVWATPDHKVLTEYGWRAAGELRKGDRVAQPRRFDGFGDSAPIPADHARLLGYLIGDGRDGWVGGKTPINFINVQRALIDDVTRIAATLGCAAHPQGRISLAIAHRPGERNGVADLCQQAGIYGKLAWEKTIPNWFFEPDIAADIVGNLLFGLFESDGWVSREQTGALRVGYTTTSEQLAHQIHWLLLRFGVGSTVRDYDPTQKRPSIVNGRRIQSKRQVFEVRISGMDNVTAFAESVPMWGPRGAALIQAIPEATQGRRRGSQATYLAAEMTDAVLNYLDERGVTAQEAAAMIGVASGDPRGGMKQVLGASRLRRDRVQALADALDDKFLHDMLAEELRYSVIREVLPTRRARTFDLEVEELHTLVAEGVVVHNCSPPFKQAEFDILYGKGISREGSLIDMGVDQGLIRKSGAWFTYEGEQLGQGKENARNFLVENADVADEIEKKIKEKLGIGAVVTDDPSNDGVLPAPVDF

[7] = ZM109 Env clade C HIV-1 fusion inhibitors, dose response, HeLa effector, CEM target cells, luciferase, cherry-pick (AID 652058); format: functional, cell-based
[8] = C. albicans growth with fluconazole, confirmation, fluorescence, retest (AID 2467); format: functional, cell-based
[9] = NIH-3T3 fibroblast cytotoxicity, dose response, cytotoxicity control, cell-based, fluorescence, Alamar Blue, secondary assay (AID 2327); format: functional;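 further: NIH-3T3 mouse fibroblasts cultured with fluconazole at 8 µg/mL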
Nonstructural protein 1 = Nonstructural protein 1 (Influenza A virus, UniProt Q194T2); format: functional, Influenza A virus (A/California/07/2009(H1N1))
[10] = target: Induced myeloid leukemia cell differentiation protein Mcl-1 (Homo sapiens, UniProt Q07820); format: functional
[11] = target: Heat shock protein HSP 90-alpha (Homo sapiens, UniProt P07900); format: functional, organism-based
Streptokinase A = target: T6, Streptokinase A (Streptococcus pyogenes serotype M1, UniProt P10520); assay: S. pyogenes streptokinase expression inhibitors, potency, dose response, plasminogen activation absorbance, OD405 (AID 1914); format: functional, Streptococcus pyogenes M1 GAS;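 further: secreted streptokinase activity via plasminogen activation per viability signal from cell pellet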
T6 sequence (P10520 whole entry): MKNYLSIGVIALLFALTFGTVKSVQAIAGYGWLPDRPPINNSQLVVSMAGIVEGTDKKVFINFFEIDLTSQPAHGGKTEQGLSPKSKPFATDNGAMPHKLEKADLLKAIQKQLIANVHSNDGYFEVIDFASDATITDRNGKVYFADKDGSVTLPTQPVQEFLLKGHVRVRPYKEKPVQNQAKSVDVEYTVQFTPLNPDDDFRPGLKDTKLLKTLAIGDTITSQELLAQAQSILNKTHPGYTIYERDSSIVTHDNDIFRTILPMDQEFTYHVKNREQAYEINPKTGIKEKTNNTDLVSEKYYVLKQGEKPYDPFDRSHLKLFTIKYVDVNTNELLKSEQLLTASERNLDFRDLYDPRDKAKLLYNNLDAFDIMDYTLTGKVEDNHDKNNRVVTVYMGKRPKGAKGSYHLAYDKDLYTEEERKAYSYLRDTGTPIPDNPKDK

[12] = system: Streptococcus sp. 'group A'; assay: growth inhibition of control SK(-) GAS strain, dose response, counter-screen for streptokinase expression inhibitor project, luminescence, kanamycin, BacTiterGlo, confirmation (AID 1900); format: functional, organism-based
Streptococcus = assay: Group A Streptococcus viability loss, dose response, counter-screen for streptokinase expression inhibitor project, luminescence, BacTiterGlo (AID 1915); format: functional, organism-based;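 further: potency for reduction of bacterial viability or growth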
[13] = P. falciparum Dd2 growth inhibitors, dose response, SYBR Green, cherry-picked samples (AID 1159567); format: functional, cell-based

Genome polyprotein, sequence (P29990 2492-3391 limits assumed): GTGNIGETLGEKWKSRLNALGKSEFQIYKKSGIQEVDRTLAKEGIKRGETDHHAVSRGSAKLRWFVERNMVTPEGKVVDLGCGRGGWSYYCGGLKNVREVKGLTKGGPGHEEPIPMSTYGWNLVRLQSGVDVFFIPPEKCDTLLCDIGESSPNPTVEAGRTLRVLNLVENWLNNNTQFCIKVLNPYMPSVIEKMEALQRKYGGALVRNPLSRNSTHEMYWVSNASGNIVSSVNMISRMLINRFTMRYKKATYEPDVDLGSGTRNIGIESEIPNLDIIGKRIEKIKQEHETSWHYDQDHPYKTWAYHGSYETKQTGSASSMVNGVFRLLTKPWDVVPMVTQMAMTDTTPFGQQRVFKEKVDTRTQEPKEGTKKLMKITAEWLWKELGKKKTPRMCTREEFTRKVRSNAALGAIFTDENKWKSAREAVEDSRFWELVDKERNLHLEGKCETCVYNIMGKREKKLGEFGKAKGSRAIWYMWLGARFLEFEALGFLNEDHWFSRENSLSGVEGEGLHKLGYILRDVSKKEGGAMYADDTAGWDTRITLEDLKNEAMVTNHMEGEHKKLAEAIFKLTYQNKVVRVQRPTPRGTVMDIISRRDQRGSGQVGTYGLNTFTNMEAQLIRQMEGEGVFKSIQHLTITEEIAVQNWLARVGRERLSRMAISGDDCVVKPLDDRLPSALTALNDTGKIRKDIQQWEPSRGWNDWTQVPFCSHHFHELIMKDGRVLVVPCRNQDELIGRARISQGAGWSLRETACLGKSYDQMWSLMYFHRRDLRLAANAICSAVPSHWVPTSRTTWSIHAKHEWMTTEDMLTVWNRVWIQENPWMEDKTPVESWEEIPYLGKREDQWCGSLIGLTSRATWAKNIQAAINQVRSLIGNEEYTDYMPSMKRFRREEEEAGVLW
Large T antigen, sequence (P03070 whole entry): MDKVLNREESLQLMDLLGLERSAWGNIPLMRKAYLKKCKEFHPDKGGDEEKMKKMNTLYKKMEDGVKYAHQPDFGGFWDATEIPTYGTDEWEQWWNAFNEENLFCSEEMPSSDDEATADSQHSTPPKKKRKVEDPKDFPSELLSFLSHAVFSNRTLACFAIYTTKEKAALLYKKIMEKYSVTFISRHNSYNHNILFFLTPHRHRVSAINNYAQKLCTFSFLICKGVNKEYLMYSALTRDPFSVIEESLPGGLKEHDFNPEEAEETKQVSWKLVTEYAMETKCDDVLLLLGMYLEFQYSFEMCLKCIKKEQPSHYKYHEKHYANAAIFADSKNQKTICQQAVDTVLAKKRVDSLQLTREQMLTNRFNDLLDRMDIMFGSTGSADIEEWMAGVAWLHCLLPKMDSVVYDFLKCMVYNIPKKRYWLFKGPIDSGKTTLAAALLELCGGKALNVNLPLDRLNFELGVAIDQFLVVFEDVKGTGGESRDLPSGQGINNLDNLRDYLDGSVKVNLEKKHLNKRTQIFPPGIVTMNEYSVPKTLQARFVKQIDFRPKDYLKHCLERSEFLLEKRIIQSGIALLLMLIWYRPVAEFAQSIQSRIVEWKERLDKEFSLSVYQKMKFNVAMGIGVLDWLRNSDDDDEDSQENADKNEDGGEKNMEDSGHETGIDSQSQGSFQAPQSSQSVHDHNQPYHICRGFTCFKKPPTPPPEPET
Nonstructural protein 1, sequence (Q194T2 whole entry): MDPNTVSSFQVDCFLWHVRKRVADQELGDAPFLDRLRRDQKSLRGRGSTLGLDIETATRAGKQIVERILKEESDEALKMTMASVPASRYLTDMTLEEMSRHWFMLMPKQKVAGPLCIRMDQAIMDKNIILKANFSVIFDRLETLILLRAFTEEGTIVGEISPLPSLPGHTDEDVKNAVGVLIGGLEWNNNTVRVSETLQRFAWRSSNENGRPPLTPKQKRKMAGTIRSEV
Induced myeloid leukemia cell differentiation protein Mcl-1, sequence (Q07820 whole entry): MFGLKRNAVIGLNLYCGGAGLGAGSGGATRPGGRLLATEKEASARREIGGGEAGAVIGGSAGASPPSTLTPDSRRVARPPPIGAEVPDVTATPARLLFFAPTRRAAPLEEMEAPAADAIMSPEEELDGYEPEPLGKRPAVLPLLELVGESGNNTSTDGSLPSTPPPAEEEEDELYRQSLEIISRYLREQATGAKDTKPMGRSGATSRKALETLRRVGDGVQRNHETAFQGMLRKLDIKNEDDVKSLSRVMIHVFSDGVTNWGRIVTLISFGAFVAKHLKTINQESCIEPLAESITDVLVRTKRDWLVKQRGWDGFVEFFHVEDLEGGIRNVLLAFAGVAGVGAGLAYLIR

O=C(O)/C=C/C(=O)c1ccc2c(c1)NC(=O)CO2
IC50 (Genome polyprotein): > 100 µM (active)

CC1(OC(=O)c2ccco2)C(=O)C=C2C=C(C3CC3)OC=C2C1=O (configuration not stated)
IC50 (Genome polyprotein): > 100 µM (active) | EC50 [1]: 20.2 µM (active) | EC50 [2]: 18.3 µM (active)

C=C[S+]([O-])c1sc(Cl)c(N2CCOCC2)c1[N+](=O)[O-] (configuration not stated)
EC50 [3]: 3.08 µM (active) | IC50 (Large T antigen): 9.77 µM (active) | EC50 [4]: 2.99 µM (active) | EC50 [5]: 3.36 µM (inconclusive) | AC50 [6]: 22.2 µM (active) | EC50 (Protein RecA): 18.8 µM (active)

O=C(C[C@@H]1C=C[C@@H](NC(=O)c2ccccc2)[C@H](CO)O1)NCc1ccc(Oc2ccccc2)cc1
AC50 [7]: 38.2 µM (active)

Cc1noc(NC(=O)c2ccc(Cl)c(Cl)c2)c1Cl
EC50 [8]: 0.591 µM (active) | EC50 [9]: > 150 µM (inactive)

OCc1ccnc2c(O)cccc12
EC50 [3]: > 30 µM (not active) | EC50 [4]: 3.36 µM (active) | EC50 [8]: > 38 µM (not active) | IC50 (Nonstructural protein 1): 10.2 µM (active) | EC50 [9]: 79.8 µM (active)

CCN(CC)c1ccc(NC(=O)CCNC(=O)c2ccco2)cc1
IC50 (Large T antigen): 6.69 µM (active) | IC50 [10]: 9.57 µM (not active)

CC(=NNC(=S)N1CC2CCC(CC2)C1)c1cnccn1
AC50 [11]: 4430 nM (active) | IC50 (Nonstructural protein 1): 3.16 µM (active)

Cc1ccc(N2CCN(C3=NC(=O)/C(=C\c4c[nH]nc4-c4ccccc4)S3)CC2)cc1
EC50 [8]: 8.34 µM (active) | EC50 [9]: > 150 µM (inactive)

Cc1ccc(Sc2ncccc2C(=O)NCc2cc([N+](=O)[O-])ccc2O)c(C)c1
EC50 [8]: 1.73 µM (active) | EC50 [9]: > 150 µM (inactive)

O=C(NNC(=S)NC(=O)c1ccccc1)c1ccc([N+](=O)[O-])cc1
EC50 (Streptokinase A): > 150 µM (not active) | EC50 [8]: 1.46 µM (active) | EC50 [12]: 4.22 µM (active) | EC50 [9]: > 160 µM (inactive) | EC50 (Streptococcus): 15.5 µM (active)

CC(=O)c1ccc(NC(=O)Nc2cccc3ccccc23)cc1
EC50 [8]: > 38 µM (not active) | EC50 [9]: 19.1 µM (inconclusive)

Cc1nn(-c2ccccc2)c(Cl)c1/C=C1\SC(=S)N(CCCCCC(=O)O)C1=O
IC50 (Genome polyprotein): 41.4 µM (active) | EC50 (Streptokinase A): 40.7 µM (inconclusive) | EC50 [12]: 5.26 µM (active) | AC50 [6]: 4.93 µM (active) | EC50 (Protein RecA): 14.2 µM (active) | EC50 (Streptococcus): 11.2 µM (active)

O=C(C1CCCC1)N1CC[C@@H]2[C@H]1c1cc(C3=CCCCC3)ccc1N[C@@H]2CO
AC50 [13]: 2.76 µM (active)

O=C(O)c1cccc2c1Cc1cc(Cl)ccc1-2
AC50 [11]: 723 nM (active)

COc1ccc2c(c1)OC[C@H]1[C@H]2N2C(=O)c3cc(Br)ccc3NC(=O)[C@@]2(C)[C@H]1c1ccccc1
AC50 [11]: 837 nM (active)

From ChEMBL document CHEMBL1201862, “PubChem BioAssay data set” (2004)
